Five compounds from patent publication US6569847B1, “Substituted azetidin-2-ones as cysteine protease inhibitors” (NAEJA Pharmaceuticals Inc., priority 1999, dated 2003) can be followed below.

Broadly, the IC50 is the midpoint of a concentration-inhibition curve. In general, melting point refers to the temperature of the solid-liquid transition.

One series deals with Cathepsin B (Homo sapiens, UniProt P07858). The series can be described thus: Assay Procedure for Cathepsin B (fluorogenic substrate N-CBZ-Phe-Arg-AMC). Format: biochemical. To be noted: r Cathepsin B, pH 5.1, 10 min preincubation; read-out: CatB IC50. As to the method: Assay Procedure for Cathepsin B
To 170 μl of enzyme-buffer mixture (r Cathepsin B diluted to give approx. 30 F units/min, buffer: 56 mM Na acetate, 1.124 mM EDTA, 10 mM DTT, pH 5.1), 10 μl of inhibitor (dissolved in 100% DMSO ) was added.
After 10 min of incubation at mom temperature 20 μl of 5 mM substrate (N-CBZ-Phe-Arg-AMC, dissolved in DMSO ) was added to initiate reaction. Reading is followed for 10 min at the Fluoroscan reader (excitation at 380 nm, emission at 460 nm).
(§1) A plot of percentage of inhibition vs inhibitor concentration is obtained, and the IC50 is determined using a linear regression calculation (concentration of inhibitor which will give 50% inhibition).

In a further series the target is Cathepsin L (Homo sapiens, UniProt P07711). Briefly: Assay Procedure for Cathepsin L (fluorogenic substrate N-CBZ-Phe-Arg-AMC). Format: biochemical. To be noted: r Cathepsin L, pH 5.0, 10 min preincubation; read-out: CatL IC50. As to the method:
Assay Procedure for Cathepsin L
To 170 μl of an enzyme-buffer mixture (enzyme: r Cathepsin L, diluted to give 25 F units/min, buffer: 58.8 mM Na citrate, 1.18 mM EDTA, 235 mM sodium chloride, 10 mM DTT, pH 5.0), 10 μl of an inhibitor (dissolved in 100% DMSO ) was added.
After 10 min of incubation at room temperature 20 μl of 1 mM substrate (N-CBZ-Phe-Arg-AMC) dissolved in DMSO was added to initiate the reaction. Reading was for 10 min at the Fluoroscan reader (excitation at 380 nm, emission at 460 nm).
as §1

In a further series the target is T1, Cathepsin K (Homo sapiens, UniProt P43235).
T1 sequence (P43235 115-329): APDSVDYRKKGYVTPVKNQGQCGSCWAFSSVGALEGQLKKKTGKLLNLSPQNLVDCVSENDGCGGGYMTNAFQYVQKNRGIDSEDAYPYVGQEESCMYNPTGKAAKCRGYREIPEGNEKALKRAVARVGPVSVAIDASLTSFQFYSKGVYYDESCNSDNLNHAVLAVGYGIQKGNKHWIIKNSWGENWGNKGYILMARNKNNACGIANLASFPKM
The series can be described thus: Assay Procedure for Cathepsin K (fluorogenic substrate N-CBZ-Phe-Arg-AMC). To be noted: r Cathepsin K, pH 5.5, 10 min preincubation; read-out: CatK IC50. The class given is biochemical. As to the method:
Assay Procedure for Cathepsin K
To 170 μl of enzyme-buffer mixture (r Cathepsin K diluted to give approx. 30 F units/min. Buffer: 100 mM sodium acetate, 5 mM EDTA, 20 mM L-Cysteine, 0.01% Brij , pH 5.5), 10 μl of inhibitor (dissolved in 100% DMSO) was added.
After 10 min of incubation at room temperature 20 μl of 2.7 mM substrate (N-CBZ-Phe-Arg-AMC, dissolved in DMSO) was added to initiate reaction. Reading is followed for 10 min at the Fluoroscan II plate reader (excitation at 380 nm, emission at 460 nm).
as §1

A further series concerns the target Cathepsin S (Homo sapiens, UniProt P25774). The series can be described thus: Assay Procedure for Cathepsin S (fluorogenic substrate CBZ-Val-Val-Arg-AMC). The class given is biochemical. To be noted: r Cathepsin S, pH 6.5, 10 min preincubation; read-out: CatS IC50. As to the method:
Assay Procedure for Cathepsin S
To 170 μl of enzyme-buffer mixture (r Cathepsin S diluted to give approx. 30 F unis/min, buffer: 100 mM sodium phosphate, 1 mM EDTA, 5 mM DTT ,0.01% Brij, pH 6.5.), 10 μl of inhibitor (dissolved in 100% DMSO) was added.
After 10 min of incubation at room temperature 20 μl of 1.2 mM substrate (CBZ-Val-Val-Arg-AMC, dissolved in DMSO) was added to initiate reaction. Reading is followed for 10 min at the Fluoroscan II plate reader (excitation at 380 nm, emission at 460 nm).
as §1

Cathepsin S, sequence (P25774 115-331, species assumed): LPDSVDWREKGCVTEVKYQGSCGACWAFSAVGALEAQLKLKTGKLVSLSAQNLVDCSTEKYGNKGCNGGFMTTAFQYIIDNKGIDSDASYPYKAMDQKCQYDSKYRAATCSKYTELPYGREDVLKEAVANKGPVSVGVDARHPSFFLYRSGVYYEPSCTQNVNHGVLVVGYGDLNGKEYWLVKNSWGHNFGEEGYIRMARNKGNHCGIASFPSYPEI
Cathepsin L, sequence (P07711 114-333, species assumed): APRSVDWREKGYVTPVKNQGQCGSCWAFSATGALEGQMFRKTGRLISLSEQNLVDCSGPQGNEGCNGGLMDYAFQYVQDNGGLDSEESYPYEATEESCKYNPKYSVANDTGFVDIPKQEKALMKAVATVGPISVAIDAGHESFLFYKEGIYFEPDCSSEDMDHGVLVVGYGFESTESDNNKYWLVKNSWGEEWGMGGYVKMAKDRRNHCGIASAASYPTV

`CC(=O)O[C@@H]1NC(=O)[C@@]1(C)NC(=O)[C@H](Cc1ccccc1)NC(=O)CCc1ccccc1` [Example 4, (3S,4S)-3-[2S-2-(3-phenylpropionyl)-amino-2-benzyl]-acetamido-3-methyl-4-acetoxy azetidine-2-one] displayed a melting point of 163 to 164 °C. Also, the IC50 at Cathepsin B came out at 10000 nM. The IC50 on Cathepsin L amounted to 1910 nM. Besides, the IC50 at Cathepsin K was 1140 nM. On Cathepsin S, the IC50 was found to be 98 nM.
For `C[C@@]1(NC(=O)[C@H](CC2CCCCC2)NC(=O)CCCCCNC(=NC(=O)OCc2ccccc2)NC(=O)OCc2ccccc2)C(=O)N[C@H]1Oc1ccccc1` [Example 7, (3S,4S)-3-[2S-2-(6-N, N-dibenzyloxycarbonylguanidinohexanoyl)-amino-2-cyclohexylmethyl]-acetamido-3-methyl-4-phenoxy-azetidine-2-one], the IC50 came to 26200 nM on Cathepsin B, 32500 nM at Cathepsin L, 32500 nM at Cathepsin K and 20 nM at Cathepsin S.
Regarding `CC(C)(C)OC(=O)N[C@@H](Cc1cccnc1)C(=O)N[C@]1(C)C(=O)N[C@H]1Oc1ccccc1` [Example 12], the melting point fell in the range of 109 to 110 °C. The IC50 on Cathepsin B is 11300 nM. Besides, on Cathepsin L, the IC50 stood at 2270 nM. Moreover, the IC50 at Cathepsin K was determined as 7740 nM. For the same compound, the IC50 on Cathepsin S was found to be 1800 nM.
For the compound `CC(C)(C)OC(=O)N[C@@H](Cc1cccnc1)C(=O)N[C@]1(C)C(=O)N[C@@H]1Oc1ccccc1` [Example 14], the IC50 on Cathepsin B was 360 nM; on Cathepsin L it was 450 nM; at Cathepsin K it was 1340 nM; on Cathepsin S it was 50 nM.
For `C[C@@]1(NC(=O)[C@H](Cc2ccccc2)NC(=O)CCc2ccccc2)C(=O)N[C@H]1Oc1cccc(C(=O)OC(c2ccccc2)c2ccccc2)c1` [Example 18, (3S,4S)-3-[2S-2-(3-phenylpropionyl)-amino-2-benzyl]-acetamido-3-methyl-4-(3-diphenylmethoxycarbonyl)-phenoxy azetidine-2-one], in that order: above 36600 nM, 7330 nM, 7300 nM and 690 nM.
